Laboratory results reported in ChEMBL document CHEMBL4354827, “Discovery of Novel, Potent, Brain-Permeable, and Orally Efficacious Positive Allosteric Modulator of α7 Nicotinic Acetylcholine Receptor [4-(5-(4-Chlorophenyl)-4-methyl-2-propionylthiophen-3-yl)benzenesulfonamide]: Structure-Activity Relationship and Preclinical Characterization” (J Med Chem, 2020).

Experiments:
[1] = target: Neuronal acetylcholine receptor subunit alpha-7 (Homo sapiens, UniProt P36544); test: Positive allosteric modulatory activity against alpha7 nAChR in human IMR-32 cells assessed as potentiation of PNU-282987-induced Ca2+ […] at 1 uM by FLIPR assay relative to control; format: cell-based
Sequence of Neuronal acetylcholine receptor subunit alpha-7 (P36544 whole entry): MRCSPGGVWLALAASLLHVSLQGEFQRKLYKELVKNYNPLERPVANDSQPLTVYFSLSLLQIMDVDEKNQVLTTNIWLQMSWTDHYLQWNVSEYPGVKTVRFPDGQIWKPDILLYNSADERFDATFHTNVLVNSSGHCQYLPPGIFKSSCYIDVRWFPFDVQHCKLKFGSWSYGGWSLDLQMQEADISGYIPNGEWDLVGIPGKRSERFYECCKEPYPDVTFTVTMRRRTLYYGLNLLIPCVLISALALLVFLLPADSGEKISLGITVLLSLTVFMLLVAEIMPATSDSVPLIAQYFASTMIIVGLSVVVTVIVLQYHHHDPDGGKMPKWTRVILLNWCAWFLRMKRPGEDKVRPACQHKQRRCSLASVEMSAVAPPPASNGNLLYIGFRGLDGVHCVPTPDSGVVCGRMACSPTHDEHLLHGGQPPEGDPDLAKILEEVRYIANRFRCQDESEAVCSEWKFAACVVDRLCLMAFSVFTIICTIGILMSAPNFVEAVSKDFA

[2] = Drug metabolism in mouse liver microsomes assessed as metabolic rate at 1 uM preincubated for 5 mins followed by NADPH addition after 30 mins by LC-MS/MS analysis; format: ADME, Microsome; settings: 0.5 h
[3] = Drug metabolism in rat liver microsomes assessed as metabolic rate at 1 uM preincubated for 5 mins followed by NADPH addition after 30 mins by LC-MS/MS analysis; format: ADME, Microsome; settings: 0.5 h
[4] = Drug metabolism in dog liver microsomes assessed as metabolic rate at 1 uM preincubated for 5 mins followed by NADPH addition after 30 mins by LC-MS/MS analysis; format: ADME, Canis lupus familiaris, Microsome; settings: 0.5 h
[5] = Drug metabolism in monkey liver microsomes assessed as metabolic rate at 1 uM preincubated for 5 mins followed by NADPH addition after 30 mins by LC-MS/MS analysis; format: ADME, Macaca mulatta, Microsome; settings: rhesus monkey, 0.5 h
[6] = Drug metabolism in human pooled liver microsomes assessed as metabolic rate at 1 uM preincubated for 5 mins followed by NADPH addition after 30 mins by LC-MS/MS analysis; format: ADME, Microsome; settings: 0.5 h
[7] = Metabolic stability in mouse liver microsomes assessed as compound remaining at 1 uM preincubated for 5 mins followed by NADPH addition and measured after 30 mins by LC-MS/MS analysis; format: ADME, Microsome; settings: read-out: Stability
[8] = Metabolic stability in rat liver microsomes assessed as compound remaining at 1 uM preincubated for 5 mins followed by NADPH addition and measured after 30 mins by LC-MS/MS analysis; format: ADME, Microsome; settings: read-out: Stability
[9] = Metabolic stability in dog liver microsomes assessed as compound remaining at 1 uM preincubated for 5 mins followed by NADPH addition and measured after 30 mins by LC-MS/MS analysis; format: ADME, Canis lupus familiaris, Microsome; settings: read-out: Stability
[10] = Metabolic stability in monkey liver microsomes assessed as compound remaining at 1 uM preincubated for 5 mins followed by NADPH addition and measured after 30 mins by LC-MS/MS analysis; format: ADME, Macaca mulatta, Microsome; settings: rhesus monkey, read-out: Stability
[11] = Metabolic stability in human pooled liver microsomes assessed as compound remaining at 1 uM preincubated for 5 mins followed by NADPH addition and measured after 30 mins by LC-MS/MS analysis; format: ADME, Microsome; settings: read-out: Stability
[12] = Protein binding in rat plasma at 5 uM incubated for 16 hrs under shaking condition by LC/MS/MS based rapid equilibrium dialysis method; format: ADME, cell-free; settings: read-out: PPB (converted)
[13] = Protein binding in human plasma at 5 uM incubated for 16 hrs under shaking condition by LC/MS/MS based rapid equilibrium dialysis method; format: ADME, cell-free; settings: read-out: PPB (converted)
[14] = AUC (0 to 144 hrs) in Wistar rat at 1 mg/kg, iv after 0.083 to 144 hrs by LC-MS/MS analysis; format: ADME, organism-based; set-up: time < 144 hr, dose 1 mg/kg, route intravenous; settings: in vivo
[15] = AUC (0 to 144 hrs) in Wistar rat at 10 mg/kg, po after 0.25 to 144 hrs by LC-MS/MS analysis; format: ADME, organism-based; set-up: dose 10 mg/kg, time < 144 hr, route oral; settings: in vivo
[16] = AUClast in Beagle dog at 1 mg/kg, iv after 0.083 to 144 hrs by LC-MS/MS analysis; format: ADME, organism-based, Canis lupus familiaris; set-up: dose 1 mg/kg, time 0.083-144 hr, route intravenous; settings: in vivo
[17] = AUClast in Beagle dog at 10 mg/kg, po after 0.25 to 144 hrs by LC-MS/MS analysis; format: ADME, organism-based, Canis lupus familiaris; set-up: time upper 144 hr, dose 10 mg/kg, time lower 0.25 hr, route oral; settings: in vivo
[18] = Cmax in Wistar rat at 1 mg/kg, iv after 0.083 to 144 hrs by LC-MS/MS analysis; format: ADME, organism-based; set-up: dose 1 mg/kg, route intravenous; settings: in vivo
[19] = Cmax in Wistar rat at 10 mg/kg, po after 0.25 to 144 hrs by LC-MS/MS analysis; format: ADME, organism-based; set-up: dose 10 mg/kg, route oral; settings: in vivo
[20] = Cmax in Beagle dog at 1 mg/kg, iv after 0.083 to 144 hrs by LC-MS/MS analysis; format: ADME, organism-based, Canis lupus familiaris; set-up: dose 1 mg/kg, route intravenous; settings: in vivo
[21] = Cmax in Beagle dog at 10 mg/kg, po after 0.25 to 144 hrs by LC-MS/MS analysis; format: ADME, organism-based, Canis lupus familiaris; set-up: dose 10 mg/kg, route oral; settings: in vivo
[22] = Tmax in Wistar rat at 1 mg/kg, iv after 0.083 to 144 hrs by LC-MS/MS analysis; format: ADME, organism-based; settings: in vivo
[23] = Tmax in Wistar rat at 10 mg/kg, po after 0.25 to 144 hrs by LC-MS/MS analysis; format: ADME, organism-based; settings: in vivo
[24] = Tmax in Beagle dog at 1 mg/kg, iv after 0.083 to 144 hrs by LC-MS/MS analysis; format: ADME, organism-based, Canis lupus familiaris; settings: in vivo
[25] = Tmax in Beagle dog at 10 mg/kg, po after 0.25 to 144 hrs by LC-MS/MS analysis; format: ADME, organism-based, Canis lupus familiaris; settings: in vivo
[26] = Half life in Wistar rat at 1 mg/kg, iv after 0.083 to 144 hrs by LC-MS/MS analysis; format: ADME, organism-based; settings: in vivo
[27] = Half life in Beagle dog at 1 mg/kg, iv after 0.083 to 144 hrs by LC-MS/MS analysis; format: ADME, organism-based, Canis lupus familiaris; settings: in vivo
[28] = Clearance in Wistar rat at 1 mg/kg, iv after 0.083 to 144 hrs by LC-MS/MS analysis; format: ADME, organism-based; settings: Wistar, in vivo
[29] = Clearance in Beagle dog at 1 mg/kg, iv after 0.083 to 144 hrs by LC-MS/MS analysis; format: ADME, organism-based, Canis lupus familiaris; settings: Beagle, in vivo
[30] = Volume of distribution at steady state in Wistar rat at 1 mg/kg, iv after 0.083 to 144 hrs by LC-MS/MS analysis; format: ADME, organism-based; settings: in vivo, read-out: Vdss
[31] = Volume of distribution at steady state in Beagle dog at 1 mg/kg, iv after 0.083 to 144 hrs by LC-MS/MS analysis; format: ADME, organism-based, Canis lupus familiaris; settings: in vivo, read-out: Vdss
[32] = Oral bioavailability in Wistar rat at 10 mg/kg after 0.25 to 144 hrs by LC-MS/MS analysis; format: ADME, organism-based; settings: in vivo
[33] = Oral bioavailability in Beagle dog at 10 mg/kg after 0.25 to 144 hrs by LC-MS/MS analysis; format: ADME, organism-based, Canis lupus familiaris; settings: in vivo

SMILES: CCC(=O)c1sc(-c2ccc(C(F)(F)F)cc2)c(C)c1-c1ccc(S(N)(=O)=O)cc1
- fold change (FC) [1]: 15.3

SMILES: CCC(=O)c1sc(-c2ccc(F)cc2)c(C)c1-c1ccc(S(N)(=O)=O)cc1
- fold change (FC) [1]: 8.7

SMILES: CCC(=O)c1sc(-c2ccc(C(C)(C)C)cc2)c(C)c1-c1ccc(S(N)(=O)=O)cc1
- fold change (FC) [1]: 1

SMILES: CCC(=O)c1sc(-c2ccc(N(C)C)cc2)c(C)c1-c1ccc(S(N)(=O)=O)cc1
- fold change (FC) [1]: 19

SMILES: CC(=O)c1sc(-c2ccc(Cl)cc2)c(C)c1-c1ccc(S(N)(=O)=O)cc1
- fold change (FC) [1]: 7

SMILES: CCC(=O)c1sc(-c2ccccc2)c(C)c1-c1ccc(S(N)(=O)=O)cc1
- fold change (FC) [1]: 2.4

SMILES: CCC(=O)c1sc(-c2ccccc2Cl)c(C)c1-c1ccc(S(N)(=O)=O)cc1
- fold change (FC) [1]: 1

SMILES: CCC(=O)c1sc(-c2cccc(Cl)c2)c(C)c1-c1ccc(S(N)(=O)=O)cc1
- fold change (FC) [1]: 1

SMILES: Cc1c(-c2ccc(Cl)cc2)sc(C(=O)N(C)C)c1-c1ccc(S(N)(=O)=O)cc1
- fold change (FC) [1]: 1

SMILES: CCC(=O)c1sc(-c2ccc(C3CC3)cc2)c(C)c1-c1ccc(S(N)(=O)=O)cc1
- fold change (FC) [1]: 7

SMILES: CCCN(CCO)C(=O)c1sc(-c2ccc(Cl)cc2)c(C)c1-c1ccc(S(N)(=O)=O)cc1
- fold change (FC) [1]: 1

SMILES: Cc1c(-c2ccc(Cl)cc2)sc(C(=O)N2CCCCC2)c1-c1ccc(S(N)(=O)=O)cc1
- fold change (FC) [1]: 1

SMILES: CCOc1ccc(-c2sc(C(=O)CC)c(-c3ccc(S(N)(=O)=O)cc3)c2C)cc1
- fold change (FC) [1]: 6

SMILES: CCC(=O)c1sc(-c2ccoc2)c(C)c1-c1ccc(S(N)(=O)=O)cc1
- fold change (FC) [1]: 1

SMILES: CCC(=O)c1sc(-c2ccc(Cl)cc2Cl)c(C)c1-c1ccc(S(N)(=O)=O)cc1
- fold change (FC) [1]: 12

SMILES: CCC(=O)c1sc(-c2ccc(OC)cc2)c(C)c1-c1ccc(S(N)(=O)=O)cc1
- fold change (FC) [1]: 22
- Drug metabolism [2]: 0.03 nmol/min/mg
- Drug metabolism [3]: 0.01 nmol/min/mg
- Drug metabolism [4]: 0.02 nmol/min/mg
- Drug metabolism [5]: 0.05 nmol/min/mg
- Drug metabolism [6]: 0.03 nmol/min/mg
- remaining at 0.5 h, 1 µM [7]: 78%
- remaining at 0.5 h, 1 µM [8]: 97%
- remaining at 0.5 h, 1 µM [9]: 84%
- remaining at 0.5 h, 1 µM [10]: 67%
- remaining at 0.5 h, 1 µM [11]: 81%
- fraction unbound at 16 h, 5 µM [12]: 0.003
- fraction unbound at 16 h, 5 µM [13]: 0.002
- AUC(0-t) at 144 h [14]: 1.3 µM·h
- AUC(0-t) at 144 h [15]: 8.2 µM·h
- AUC(0-t) [16]: 3.2 µM·h
- AUC(0-t) [17]: 1.3 µM·h
- Cmax [18]: 900 nM
- Cmax [19]: 3000 nM
- Cmax [20]: 2300 nM
- Cmax [21]: 400 nM
- Tmax [22]: 4.8 min
- Tmax [23]: 2 h
- Tmax [24]: 15 min
- Tmax [25]: 1.17 h
- half-life [26]: 84 min
- half-life [27]: 120 min
- clearance [28]: 31 mL/min/kg
- clearance [29]: 12 mL/min/kg
- Vd [30]: 3 L/kg
- Vd [31]: 2 L/kg
- bioavailability [32]: 63%
- bioavailability [33]: 4%

SMILES: CCC(=O)c1sc(-c2ccncc2)c(C)c1-c1ccc(S(N)(=O)=O)cc1
- fold change (FC) [1]: 1
